From ChEMBL document CHEMBL5291721, “A preclinical secondary pharmacology resource illuminates target-adverse drug reaction associations of marketed drugs” (Nat Commun, 2023)

Tests used:
[1] = molecular target: T1, Alpha-1A adrenergic receptor (Homo sapiens, UniProt P35348); format: functional, cell-based
T1 sequence (P35348 whole entry): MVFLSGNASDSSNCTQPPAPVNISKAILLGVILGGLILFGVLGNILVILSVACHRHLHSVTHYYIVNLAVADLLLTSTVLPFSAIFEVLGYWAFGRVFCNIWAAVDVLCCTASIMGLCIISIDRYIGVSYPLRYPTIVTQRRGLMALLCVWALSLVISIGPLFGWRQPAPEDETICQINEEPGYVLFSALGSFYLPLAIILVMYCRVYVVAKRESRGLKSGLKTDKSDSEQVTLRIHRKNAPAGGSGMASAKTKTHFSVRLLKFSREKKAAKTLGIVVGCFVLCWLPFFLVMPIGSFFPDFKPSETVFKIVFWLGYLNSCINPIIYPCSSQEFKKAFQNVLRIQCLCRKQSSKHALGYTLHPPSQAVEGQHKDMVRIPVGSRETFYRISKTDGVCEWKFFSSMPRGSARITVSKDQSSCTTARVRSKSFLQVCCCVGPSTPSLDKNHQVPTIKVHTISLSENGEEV

[2] = molecular target: Beta-2 adrenergic receptor (Homo sapiens, UniProt P07550)
Endothelin-1 receptor = molecular target: T2, Endothelin-1 receptor (Homo sapiens, UniProt P25101)
T2 sequence (P25101 whole entry): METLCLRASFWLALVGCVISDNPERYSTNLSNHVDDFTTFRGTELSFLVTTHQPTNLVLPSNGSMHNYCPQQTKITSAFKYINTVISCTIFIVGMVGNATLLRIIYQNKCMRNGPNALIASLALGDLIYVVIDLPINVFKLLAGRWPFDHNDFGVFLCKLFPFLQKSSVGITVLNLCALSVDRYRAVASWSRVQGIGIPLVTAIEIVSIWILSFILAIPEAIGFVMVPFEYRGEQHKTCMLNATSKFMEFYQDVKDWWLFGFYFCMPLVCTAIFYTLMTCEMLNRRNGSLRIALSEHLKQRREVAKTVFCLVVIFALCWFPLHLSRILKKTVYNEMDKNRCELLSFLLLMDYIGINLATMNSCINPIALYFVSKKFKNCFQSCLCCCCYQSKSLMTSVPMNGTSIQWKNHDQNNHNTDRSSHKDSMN

[3] = molecular target: Gamma-aminobutyric acid receptor subunit alpha-1 (Rattus norvegicus, UniProt P62813); format: functional
Progesterone receptor = molecular target: T3, Progesterone receptor (Homo sapiens, UniProt P06401); format: functional
T3 sequence (P06401 whole entry): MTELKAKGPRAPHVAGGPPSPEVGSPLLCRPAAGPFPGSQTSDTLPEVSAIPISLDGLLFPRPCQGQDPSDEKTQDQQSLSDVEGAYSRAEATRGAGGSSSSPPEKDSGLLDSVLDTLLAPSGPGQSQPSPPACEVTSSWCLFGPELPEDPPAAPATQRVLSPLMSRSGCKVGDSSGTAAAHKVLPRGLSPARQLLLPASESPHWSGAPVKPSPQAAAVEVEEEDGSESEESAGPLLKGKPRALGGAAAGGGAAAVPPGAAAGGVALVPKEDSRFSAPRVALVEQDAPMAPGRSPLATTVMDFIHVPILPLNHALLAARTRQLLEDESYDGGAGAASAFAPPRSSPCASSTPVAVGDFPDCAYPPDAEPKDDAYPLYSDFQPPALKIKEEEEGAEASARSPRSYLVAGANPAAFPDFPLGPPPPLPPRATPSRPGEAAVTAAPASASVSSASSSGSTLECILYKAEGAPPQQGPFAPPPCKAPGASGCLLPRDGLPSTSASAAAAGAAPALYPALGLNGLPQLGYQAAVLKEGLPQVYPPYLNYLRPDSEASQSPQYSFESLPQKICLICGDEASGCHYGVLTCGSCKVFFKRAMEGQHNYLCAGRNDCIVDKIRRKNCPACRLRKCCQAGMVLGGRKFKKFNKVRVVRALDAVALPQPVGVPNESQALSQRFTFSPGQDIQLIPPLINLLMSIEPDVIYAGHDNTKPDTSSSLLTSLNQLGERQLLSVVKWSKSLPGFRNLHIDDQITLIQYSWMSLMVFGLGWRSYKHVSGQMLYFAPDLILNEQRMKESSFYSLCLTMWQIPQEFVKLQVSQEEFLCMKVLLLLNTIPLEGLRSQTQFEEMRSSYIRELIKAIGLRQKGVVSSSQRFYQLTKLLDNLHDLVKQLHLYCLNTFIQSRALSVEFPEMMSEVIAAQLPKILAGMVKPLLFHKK

D(3) dopamine receptor = D(3) dopamine receptor (Homo sapiens, UniProt P35462)
[4] = molecular target: T1, Alpha-1A adrenergic receptor; format: functional, cell-based; remark: listed apart in the source
[5] = molecular target: T1, Alpha-1A adrenergic receptor
Also: assay procedure not described here.

Chain of Beta-2 adrenergic receptor (P07550 whole entry): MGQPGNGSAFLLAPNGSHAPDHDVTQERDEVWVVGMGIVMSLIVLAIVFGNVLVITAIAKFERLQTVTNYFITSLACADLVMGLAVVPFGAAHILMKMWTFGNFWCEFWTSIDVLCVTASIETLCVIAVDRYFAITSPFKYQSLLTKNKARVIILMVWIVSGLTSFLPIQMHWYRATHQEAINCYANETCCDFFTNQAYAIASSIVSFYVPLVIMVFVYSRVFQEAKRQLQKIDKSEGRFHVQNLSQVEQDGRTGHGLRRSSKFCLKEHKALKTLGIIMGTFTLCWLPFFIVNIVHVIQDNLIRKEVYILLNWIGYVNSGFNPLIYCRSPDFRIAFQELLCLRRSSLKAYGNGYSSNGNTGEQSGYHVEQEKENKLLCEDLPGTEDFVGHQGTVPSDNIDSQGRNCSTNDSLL
Chain of Gamma-aminobutyric acid receptor subunit alpha-1 (P62813 whole entry): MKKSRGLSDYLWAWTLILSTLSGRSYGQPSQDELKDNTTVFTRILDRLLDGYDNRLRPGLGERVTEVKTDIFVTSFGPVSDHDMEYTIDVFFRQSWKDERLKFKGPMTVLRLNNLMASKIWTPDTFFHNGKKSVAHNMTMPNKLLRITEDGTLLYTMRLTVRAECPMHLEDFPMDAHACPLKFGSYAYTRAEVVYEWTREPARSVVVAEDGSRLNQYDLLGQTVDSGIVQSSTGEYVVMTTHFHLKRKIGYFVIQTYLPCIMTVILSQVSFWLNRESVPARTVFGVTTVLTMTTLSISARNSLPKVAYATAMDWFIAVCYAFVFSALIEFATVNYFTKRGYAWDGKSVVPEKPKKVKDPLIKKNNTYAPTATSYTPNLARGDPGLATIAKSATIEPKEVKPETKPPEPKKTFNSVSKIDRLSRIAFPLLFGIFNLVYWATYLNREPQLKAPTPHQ
Chain of D(3) dopamine receptor (P35462 whole entry): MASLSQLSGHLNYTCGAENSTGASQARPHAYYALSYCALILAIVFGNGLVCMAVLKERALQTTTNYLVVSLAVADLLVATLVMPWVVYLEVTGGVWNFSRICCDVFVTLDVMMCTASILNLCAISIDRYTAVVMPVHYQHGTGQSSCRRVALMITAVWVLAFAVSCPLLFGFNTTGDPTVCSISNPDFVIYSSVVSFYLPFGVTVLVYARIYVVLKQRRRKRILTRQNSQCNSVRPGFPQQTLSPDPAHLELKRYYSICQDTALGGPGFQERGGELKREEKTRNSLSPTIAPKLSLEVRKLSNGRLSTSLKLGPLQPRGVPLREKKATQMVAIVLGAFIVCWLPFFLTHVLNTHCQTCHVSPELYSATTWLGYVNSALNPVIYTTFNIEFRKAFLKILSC

SMILES | AC50 [1] | AC50 [2] | AC50 (Endothelin-1 receptor) | AC50 [3] | AC50 (Progesterone receptor) | AC50 (D(3) dopamine receptor) | AC50 [4] | AC50 [5]
CC(=O)OCC(=O)[C@@]12N=C(C)O[C@@H]1C[C@H]1[C@@H]3CCC4=CC(=O)C=C[C@]4(C)[C@H]3[C@@H](O)C[C@@]12C [DEFLAZACORT] | > 30 µM | > 30 µM | > 30 µM | > 30 µM | 3.7 µM | > 30 µM | > 30 µM | –
COc1cc2c(N)nc(N3CCN(C(=O)OCC(C)(C)O)CC3)nc2c(OC)c1OC [TRIMAZOSIN] | > 30 µM | > 30 µM | > 30 µM | > 30 µM | > 30 µM | > 30 µM | 1.2 µM | 1800 nM
CC(C)C(=O)c1c(C(C)C)nn2ccccc12 [IBUDILAST] | > 30 µM | > 30 µM | > 30 µM | 5.7 µM | > 30 µM | > 30 µM | > 30 µM | –
O=C(O)/C=C/c1ccc(Cn2ccnc2)cc1 [OZAGREL] | – | – | > 30 µM | > 30 µM | > 30 µM | > 30 µM | – | –
O=C(O)CCCCCCNC1c2ccccc2CCc2ccccc21 [AMINEPTINE] | > 30 µM | > 30 µM | > 30 µM | > 30 µM | > 30 µM | > 30 µM | > 30 µM | –
COc1ccc(-c2ccc3cc(C(=O)O)ccc3c2)cc1C12CC3CC(CC(C3)C1)C2 | > 30 µM | > 30 µM | > 30 µM | > 30 µM | > 30 µM | > 30 µM | > 30 µM | –
CCN(CC)C(=O)N[C@H]1C[C@@H]2c3cccc4[nH]cc(c34)C[C@H]2N(C)C1 [TERGURIDE] | > 30 µM | – | > 30 µM | > 30 µM | > 30 µM | 0.006 µM | 1.1 µM | –
Nc1nc(N)nc(-c2cc(Cl)ccc2Cl)n1 [IRSOGLADINE] | > 30 µM | > 30 µM | > 30 µM | – | > 30 µM | – | > 30 µM | –
COc1ccc2c3c1O[C@H]1C(=O)CC[C@@]4(O)[C@@H](C2)N(C)CC[C@]314 [OXYCODONE] | > 30 µM | > 30 µM | > 30 µM | > 30 µM | > 30 µM | > 30 µM | > 30 µM | –
CC(=O)O[C@H]1C[C@@H]2CC[C@@H]3[C@H](CC[C@@]4(C)[C@H]3C[C@H]([N+]3(C)CCCCC3)[C@@H]4OC(C)=O)[C@@]2(C)C[C@@H]1N1CCCCC1 [VECURONIUM] | > 30 µM | > 30 µM | > 30 µM | > 30 µM | > 30 µM | > 30 µM | > 30 µM | –
CCN1CCN(C(=O)N[C@@H](C(=O)N[C@@H]2C(=O)N3C(C(=O)O)=C(CSc4nnnn4C)CS[C@H]23)c2ccc(O)cc2)C(=O)C1=O [CEFOPERAZONE] | > 30 µM | – | > 30 µM | > 30 µM | – | > 30 µM | – | –
CCOC(=O)[N-]c1cn(N2CCOCC2)n[o+]1 [MOLSIDOMINE] | > 30 µM | > 30 µM | > 30 µM | > 30 µM | > 30 µM | > 30 µM | > 30 µM | –
CN1C(=O)C(O)N=C(c2ccccc2Cl)c2cc(Cl)ccc21 (stereo unspecified) [LORMETAZEPAM] | > 30 µM | > 30 µM | > 30 µM | 0.0014 µM | > 30 µM | > 30 µM | > 30 µM | –
O=C(NCCNCC(O)COc1ccc(O)cc1)N1CCOCC1 (stereo unspecified) [XAMOTEROL] | > 30 µM | – | > 30 µM | > 30 µM | > 30 µM | > 30 µM | – | –
CC(C)(C)C(=O)Oc1ccc(S(=O)(=O)Nc2ccccc2C(=O)NCC(=O)O)cc1 | – | > 30 µM | > 30 µM | > 30 µM | > 30 µM | > 30 µM | – | –
CNC(C)CCC=C(C)C (stereo unspecified) [ISOMETHEPTENE] | – | > 30 µM | > 30 µM | – | > 30 µM | – | – | –
CCC(C(=O)O)c1ccc(N2Cc3ccccc3C2=O)cc1 (stereo unspecified) [INDOBUFEN] | > 30 µM | > 30 µM | > 30 µM | > 30 µM | > 30 µM | > 30 µM | 5.3 µM | –
COC(=O)C1=C(C)NC(C)=C(C(=O)OC2CCCN(Cc3ccccc3)C2)C1c1cccc([N+](=O)[O-])c1 (stereo unspecified) [BENIDIPINE] | 4.5 µM | > 30 µM | > 30 µM | > 30 µM | – | 16 µM | – | 3000 nM
CO/N=C(\C(=O)N[C@@H]1C(=O)N2C(C(=O)O)=C(CSc3nnnn3C)CS[C@H]12)c1csc(N)n1 [CEFMENOXIME] | > 30 µM | – | > 30 µM | – | > 30 µM | – | > 30 µM | –
C=CCN1CCCC1CNC(=O)c1cc(S(N)(=O)=O)cc(OC)c1OC (stereo unspecified) [VERALIPRIDE] | > 30 µM | > 30 µM | > 30 µM | > 30 µM | > 30 µM | 0.003 µM | > 30 µM | –
Clc1ccc(CCCOCCCN2CCCCC2)cc1 [PITOLISANT] | > 30 µM | – | > 30 µM | > 30 µM | > 30 µM | > 30 µM | > 30 µM | –
CC(C)OC(=O)CCC/C=C\C[C@@H]1[C@@H](CC[C@@H](O)CCc2ccccc2)[C@H](O)C[C@@H]1O [LATANOPROST] | > 30 µM | – | > 30 µM | > 30 µM | > 30 µM | > 30 µM | – | –
CCOC(=O)OC(C)OC1=C(C(=O)Nc2ccccn2)N(C)S(=O)(=O)c2ccccc21 (stereo unspecified) [AMPIROXICAM] | > 30 µM | > 30 µM | > 30 µM | > 30 µM | > 30 µM | > 30 µM | > 30 µM | –
CCOC(=O)[C@H](CCc1ccccc1)N[C@@H](C)C(=O)N1C(=O)N(C)C[C@H]1C(=O)O | > 30 µM | > 30 µM | > 30 µM | > 30 µM | > 30 µM | > 30 µM | > 30 µM | –
Cn1c(=O)c2c(ncn2CC2OCCO2)n(C)c1=O [DOXOFYLLINE] | > 30 µM | > 30 µM | > 30 µM | > 30 µM | > 30 µM | > 30 µM | > 30 µM | –
CCC1(CC)C(=O)NCC(C)C1=O (stereo unspecified) [METHYPRYLON] | > 30 µM | – | > 30 µM | > 30 µM | > 30 µM | > 30 µM | – | –
CC(CC(c1ccccc1)c1ccccc1)NC(C)(C)C (stereo unspecified) [TERODILINE] | > 30 µM | > 30 µM | > 30 µM | > 30 µM | > 30 µM | > 30 µM | 12 µM | –
Cc1ccc(-n2nccn2)c(C(=O)N2CCN(c3nc4cc(Cl)ccc4o3)CC[C@H]2C)c1 [SUVOREXANT] | > 30 µM | > 30 µM | > 30 µM | > 30 µM | > 30 µM | > 30 µM | > 30 µM | –
